The values that follow come from US20070027033A1, “Anti-germination method of tubers or bulbs using eugenol and/or isoeugenol” (priority 2005, published 2007).

This assay has as its system germination and nascent sprouts of potatoes. The assay is described as follows: Post-storage application to washed potatoes, in line or by immersion, compared with CIPC and other essential oils. Type of assay: in vivo, potato. As to conditions: emulsifiable liquid solution applied in line to washed potatoes or by immersion in dilute aqueous solution, after storage, at ambient temperature.

Structures are written as SMILES.

On to `C=CCc1ccc(O)c(OC)c1` [eugenol], for which the “prevention of germination and burning of nascent sprouts” value is given as “more effectively than the CIPC-based formulation or other essential oils”.
